Assay results from PubChem BioAssay (NCI).
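Following 48 hours of exposure in 96-well plates, responses at five concentrations were used to interpolate endpoints linearly. TGI is the concentration that stops growth completely.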

How the values were obtained:
Assay in all cases: NCI anticancer screen, dose series, 48 h
NCI/ADR-RES ovarian = tested on: NCI/ADR-RES ovarian
TK-10 renal = tested on: TK-10 renal
OVCAR-5 ovarian = tested on: OVCAR-5 ovarian
OVCAR-3 ovarian = tested on: OVCAR-3 ovarian
A498 renal = tested on: A498 renal
NCI-H226 lung = tested on: NCI-H226 lung
HT29 colon = tested on: HT29 colon
T-47D breast = tested on: T-47D breast
COLO 205 colon = tested on: COLO 205 colon
SNB-75 CNS = tested on: SNB-75 CNS
RXF 393 renal = tested on: RXF 393 renal
NCI-H23 lung = tested on: NCI-H23 lung
HL-60(TB) leukemia = tested on: HL-60(TB) leukemia
HS 578T breast = tested on: HS 578T breast
SF-295 CNS = tested on: SF-295 CNS
MALME-3M melanoma = tested on: MALME-3M melanoma
SK-MEL-2 melanoma = tested on: SK-MEL-2 melanoma

Compound	TGI (NCI/ADR-RES ovarian)	TGI (TK-10 renal)	TGI (OVCAR-5 ovarian)	TGI (OVCAR-3 ovarian)	TGI (A498 renal)	TGI (NCI-H226 lung)	TGI (HT29 colon)	TGI (T-47D breast)	TGI (COLO 205 colon)	TGI (SNB-75 CNS)	TGI (RXF 393 renal)	TGI (NCI-H23 lung)	TGI (HL-60(TB) leukemia)	TGI (HS 578T breast)	TGI (SF-295 CNS)	TGI (MALME-3M melanoma)	TGI (SK-MEL-2 melanoma)
Cc1nc2ccc(Cl)cc2c2c1CCN2c1ccc(F)cc1	> 100 µM	> 100 µM	> 100 µM	> 100 µM	68.4 µM	88.8 µM	> 100 µM	> 100 µM	56.5 µM	9.13 µM	93.3 µM	> 100 µM	35.3 µM	> 100 µM	> 100 µM	82 µM	> 100 µM
CC(C)C1=Cc2ccc3c(c2C(=O)C1=O)CCCC3	52.1 µM	6.55 µM	28.6 µM	5.33 µM	18.5 µM	36.1 µM	25.1 µM	0.567 µM	27.1 µM	4.76 µM	7.82 µM	20.3 µM	1.95 µM	55.9 µM	25.8 µM	5.78 µM	18.8 µM
CCCCCCCCCCC/C=C(/C(=O)CCCO[Si](C)(C)C(C)(C)C)C(=O)OC	> 100 µM	> 100 µM	> 100 µM	> 100 µM	> 100 µM	> 100 µM	> 100 µM	> 100 µM	> 100 µM	> 100 µM	> 100 µM	> 100 µM	> 100 µM	> 100 µM	> 100 µM	> 100 µM	> 100 µM
C[C@]12CC[C@H]3[C@@H](CC=C4C[C@@H](O)CC[C@@]43C)[C@@H]1C/C(=C\c1ccncc1)[C@@H]2O	67.7 µM	> 100 µM	> 100 µM	> 100 µM	28.3 µM	57.2 µM	> 100 µM	42.5 µM	24.9 µM	62.8 µM	38 µM	33.6 µM	31 µM	> 100 µM	35.5 µM	62.1 µM	45.9 µM
O=C(/C=C/c1ccc([N+](=O)[O-])cc1)N1CCN(CCOC(c2ccc(F)cc2)c2ccc(F)cc2)CC1	> 100 µM	> 100 µM	> 100 µM	> 100 µM	> 100 µM	> 100 µM	> 100 µM	> 100 µM	27.3 µM	> 100 µM	> 100 µM	> 100 µM	> 100 µM	> 100 µM	> 100 µM	> 100 µM	> 100 µM
Cc1[nH]c2ncn3[nH]c(=S)nc3c2c1Cc1ccccc1	> 100 µM	> 100 µM	> 100 µM	> 100 µM	> 100 µM	> 100 µM	> 100 µM	> 100 µM	> 100 µM	> 100 µM	> 100 µM	> 100 µM	> 100 µM	> 100 µM	> 100 µM	> 100 µM	> 100 µM
O=C(O)CCC(NC(=O)c1ccc(Oc2nc3ccccc3nc2C(=O)O)cc1)C(=O)O (stereo not given)	> 100 µM	> 100 µM	> 100 µM	> 100 µM	> 100 µM	> 100 µM	> 100 µM	> 100 µM	> 100 µM	> 100 µM	> 100 µM	> 100 µM	> 100 µM	> 100 µM	> 100 µM	> 100 µM	> 100 µM
FC(F)(F)c1ccc2c(-c3cc[nH]c3)ccnc2c1	> 100 µM	70.1 µM	87.4 µM	88 µM	51.8 µM	> 100 µM	39.2 µM	> 100 µM	43.8 µM	33.8 µM	46.2 µM	> 100 µM	42.2 µM	56.4 µM	84.1 µM	50.4 µM	> 100 µM
O=C1c2ccccc2CC12Cc1cc3c(cc1C2)CCC3	> 100 µM	> 100 µM	> 100 µM	> 100 µM	> 100 µM	> 100 µM	62.1 µM	> 100 µM	> 100 µM	> 100 µM	> 100 µM	> 100 µM	> 100 µM	> 100 µM	> 100 µM	76.2 µM	> 100 µM
CCOC(=O)C1=C(C(=O)OCC)SC2(S1)C(C(=O)OCC)=C(C(=O)OCC)Sc1c2ssc1=O	7.64 µM	3.16 µM	12.4 µM	3.16 µM	12.8 µM	42.2 µM	3.75 µM	4.62 µM	5.15 µM	3.94 µM	2.47 µM	4.02 µM	1.06 µM	5.41 µM	28.8 µM	4.19 µM	5.5 µM
